In paper PMC10709440, “High-throughput ligand profile characterization in novel cell lines expressing seven heterologous insect olfactory receptors for the detection of volatile plant biomarkers” (Scientific Reports, 2023):
Where “and” joins values, the source holds several entries; their conditions need not be identical. Equal values may be shown once. Read-outs that look alike come from different tables or passages of the source.

Assays:
[1] = target: T1, Drosophila OR49b (Drosophila melanogaster, UniProt Q9V6H2); assay: cell-based; settings: for Average response: mean of biological replicates
T1 construct: expressed in transfected cells
T1 sequence (Q9V6H2 1-375): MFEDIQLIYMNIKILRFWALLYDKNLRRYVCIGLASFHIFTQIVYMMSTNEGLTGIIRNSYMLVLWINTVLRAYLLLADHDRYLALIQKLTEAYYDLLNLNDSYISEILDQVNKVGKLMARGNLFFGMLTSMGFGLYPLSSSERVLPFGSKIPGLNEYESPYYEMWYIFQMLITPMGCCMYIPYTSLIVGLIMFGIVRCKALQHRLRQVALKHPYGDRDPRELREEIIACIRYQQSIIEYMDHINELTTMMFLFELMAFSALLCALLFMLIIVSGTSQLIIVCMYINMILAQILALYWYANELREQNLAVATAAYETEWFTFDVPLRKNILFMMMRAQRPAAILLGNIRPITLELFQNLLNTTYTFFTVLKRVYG
T1 sequence (Q9VNB5 1-486 partner): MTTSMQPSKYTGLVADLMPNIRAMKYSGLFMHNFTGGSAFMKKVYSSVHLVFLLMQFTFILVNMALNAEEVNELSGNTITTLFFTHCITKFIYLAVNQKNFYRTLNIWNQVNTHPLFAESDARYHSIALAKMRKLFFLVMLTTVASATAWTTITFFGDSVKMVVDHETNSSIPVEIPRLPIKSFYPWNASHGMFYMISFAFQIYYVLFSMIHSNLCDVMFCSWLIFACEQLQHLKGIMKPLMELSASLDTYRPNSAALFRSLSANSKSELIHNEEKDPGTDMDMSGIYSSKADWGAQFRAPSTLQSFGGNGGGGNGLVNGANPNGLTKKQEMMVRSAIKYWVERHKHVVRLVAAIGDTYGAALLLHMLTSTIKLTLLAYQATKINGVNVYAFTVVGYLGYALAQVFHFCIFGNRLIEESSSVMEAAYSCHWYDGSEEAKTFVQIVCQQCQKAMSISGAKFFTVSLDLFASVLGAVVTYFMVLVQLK
How it was run: (§1)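 HEK293 lines stably expressing each Drosophila OR with GCaMP6, doxycycline-induced (1 μg/mL) 48 or 72 h. Fluorescence recorded 5 s baseline then 30 s after VOC injection at pH 7.3; ΔF=(FMAX−F0)/F0, normalized to 50 µM VUAA1 response per line, triplicate wells averaged; concentration series 0.01–100 μM.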

[2] = target: T2, Drosophila OR10a (Drosophila melanogaster, UniProt Q9VYZ1); assay: Calcium ion fluorescence (GCaMP6) assay, OR10a stable HEK293 cell line; assay type: cell-based
T2 construct: expressed in transfected cells
T2 sequence (Q9VYZ1 1-406): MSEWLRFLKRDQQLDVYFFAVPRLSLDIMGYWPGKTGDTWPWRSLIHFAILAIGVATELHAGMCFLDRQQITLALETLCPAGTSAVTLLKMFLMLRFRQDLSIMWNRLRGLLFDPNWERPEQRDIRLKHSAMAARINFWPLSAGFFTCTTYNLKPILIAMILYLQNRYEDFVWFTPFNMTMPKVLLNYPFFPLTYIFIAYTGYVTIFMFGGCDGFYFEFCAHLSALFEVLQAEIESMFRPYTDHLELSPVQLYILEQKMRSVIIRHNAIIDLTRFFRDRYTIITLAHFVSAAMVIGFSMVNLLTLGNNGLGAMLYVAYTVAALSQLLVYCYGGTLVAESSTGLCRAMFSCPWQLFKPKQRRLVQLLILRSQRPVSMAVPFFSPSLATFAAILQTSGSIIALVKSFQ
T2 sequence (Q9VNB5 1-486 partner): T1 sequence (Q9VNB5 1-486 partner)
How it was run: as §1

[3] = OR49b cell line, odorant cc. 1 µM
[4] = OR49b cell line, odorant cc. 10 µM
[5] = OR49b cell line, odorant cc. 100 µM
[6] = HEK293, read-out: OR49b Average response (VUAA1-normalized)
[7] = HEK293, read-out: OR49b response (VUAA1-normalized response)
[8] = ligand concentration 1 (unit not given), threshold 0.05, below shown as 0
[9] = ligand concentration 10 (unit not given), threshold 0.05, below shown as 0
[10] = ligand concentration 100 (unit not given), threshold 0.05, below shown as 0

What does the source list for (+)-beta-cedrene?
DF norm AVERAGE OR49b [1]: 0; Average response [1, 3]: 0.00; Average response [1, 4]: 0.0336; Average response [1, 5]: 0.00; OR49b response (VUAA1-normalized response) ([1]; VOC concentration 1 μM): 0.00; OR49b response (VUAA1-normalized response) ([1]; VOC concentration 10 μM): 0.00; OR49b response (VUAA1-normalized response) ([1]; VOC concentration 100 μM): 0.00; DF norm AVERAGE OR10a [2]: 0; OR10a Average response (VUAA1-normalized) ([2]; 1 μM VOC, 50 μM VUAA1 = 1, responses not exceeding 0.05 considered 0): 0.0218; OR10a Average response (VUAA1-normalized) ([2]; 10 μM VOC, 50 μM VUAA1 = 1, responses not exceeding 0.05 considered 0): 0.0187; OR10a Average response (VUAA1-normalized) ([2]; 100 μM VOC, 50 μM VUAA1 = 1, responses not exceeding 0.05 considered 0): 0.00; OR10a response (VUAA1-normalized response) ([2]; VOC concentration 1 μM): 0.00; OR10a response (VUAA1-normalized response) ([2]; VOC concentration 10 μM): 0.00; OR10a response (VUAA1-normalized response) ([2]; VOC concentration 100 μM): 0.00

With `CCCCOC(C)=O` [butyl acetate] as the molecule, how does the activation at 1 µM [1, 6] read?
The activation at 1 µM was 0%.

And the activation at 10 µM [1, 6]?
Its activation at 10 µM is 0%.

And the activation at 1 µM [1, 7]?
Its activation at 1 µM is 0%.

What about the activation at 10 µM [1, 7] of the same molecule?
The activation at 10 µM was 0%.

What about the activation at 100 µM [1, 7] of the same molecule?
The activation at 100 µM was 20%.

What about the activation at 1 µM ([2]; HEK293, read-out: OR10a Average response (VUAA1-normalized), 1 μM VOC, 50 μM VUAA1 = 1, responses not exceeding 0.05 considered 0) of the same molecule?
Its activation at 1 µM is 3%.

What about the activation at 10 µM ([2]; HEK293, read-out: OR10a Average response (VUAA1-normalized), 10 μM VOC, 50 μM VUAA1 = 1, responses not exceeding 0.05 considered 0) of the same molecule?
Its activation at 10 µM is 0%.

What about the activation at 100 µM ([2]; HEK293, read-out: OR10a Average response (VUAA1-normalized), 100 μM VOC, 50 μM VUAA1 = 1, responses not exceeding 0.05 considered 0) of the same molecule?
The activation at 100 µM was 5%.

What about the activation at 1 µM ([2]; HEK293, read-out: OR10a response (VUAA1-normalized response), VOC concentration 1 μM) of the same molecule?
Its activation at 1 µM is 0%.

And the activation at 10 µM ([2]; HEK293, read-out: OR10a response (VUAA1-normalized response), VOC concentration 10 μM)?
Its activation at 10 µM is 0%.

What about the activation at 100 µM ([2]; HEK293, read-out: OR10a response (VUAA1-normalized response), VOC concentration 100 μM) of the same molecule?
The activation at 100 µM was 0%.

What about the “DF norm AVERAGE OR10a” value [2, 8] of the same molecule?
Its value is 0.

And the “DF norm AVERAGE OR10a” value [2, 9]?
The value was 0.

What about the “DF norm AVERAGE OR10a” value [2, 10] of the same molecule?
The value was 0.

Which results are given for `COC(=O)c1ccccc1O` [methyl salicylate]?
activation at 1 µM ([1]; HEK293, 1 μM VOC, 50 μM VUAA1 = 1, read-out: OR49b Average response (VUAA1-normalized)): 3%; activation at 10 µM ([1]; HEK293, 10 μM VOC, 50 μM VUAA1 = 1, read-out: OR49b Average response (VUAA1-normalized)): 0%; activation at 100 µM ([1]; HEK293, 100 μM VOC, 50 μM VUAA1 = 1, read-out: OR49b Average response (VUAA1-normalized)): 12%; OR49b response (VUAA1-normalized) at 1 μM ([1]; OR49b cell line, VOC concentration 1 μM): 0.00; OR49b response (VUAA1-normalized) at 10 μM ([1]; OR49b cell line, VOC concentration 10 μM): 0.00; OR49b response (VUAA1-normalized) at 100 μM ([1]; OR49b cell line, VOC concentration 100 μM): 0.12; Average response [1, 3]: 0.0269; Average response [1, 4]: 0.00333; Average response [1, 5]: 0.12; DF norm AVERAGE OR49b [1, 8]: 0; DF norm AVERAGE OR49b [1, 9]: 0; DF norm AVERAGE OR49b [1, 10]: 0.1238; EC50 ([2]; AVERAGE EC50, from the average LOG EC50 of 5 biological replicates, unit inferred): 0.0755 µM; EC50 ([2]; EC50, FITTED AVERAGE CURVE, fit of the averaged dose-response curve, unit inferred): 0.0686 µM; EC50 ([2]; EC50, OR10a cell line, fitted Hill equation, Hill coefficient constrained to 1, maximal response max 1): 0.08 µM; EC50 ([2]; EC50 AVERAGE (arithmetic average of fitted EC50), average of 5 biological replicates, unit inferred): 0.0901 µM; activation at 1 µM ([2]; HEK293, 1 μM VOC, 50 μM VUAA1 = 1, responses not exceeding 0.05 considered 0, read-out: OR10a Average response (VUAA1-normalized)): 49%; activation at 10 µM ([2]; HEK293, 10 μM VOC, 50 μM VUAA1 = 1, responses not exceeding 0.05 considered 0, read-out: OR10a Average response (VUAA1-normalized)): 55%; activation at 100 µM ([2]; HEK293, 100 μM VOC, 50 μM VUAA1 = 1, responses not exceeding 0.05 considered 0, read-out: OR10a Average response (VUAA1-normalized)): 95%; Emax ([2]; HEK293, read-out: VUAA1 normalized MAX response): 44%; n, FITTED AVERAGE CURVE ([2]; Hill coefficient of the fit of the averaged curve): 0.855; OR10a response (VUAA1-normalized) at 1 μM ([2]; OR10a cell line, VOC concentration 1 μM): 0.49; OR10a response (VUAA1-normalized) at 10 μM ([2]; OR10a cell line, VOC concentration 10 μM): 0.55; OR10a response (VUAA1-normalized) at 100 μM ([2]; OR10a cell line, VOC concentration 100 μM): 0.95; AVERAGE MAX ([2]; average of 5 biological replicates): 0.4437; response, AVERAGE ([2]; concentration 0.008, average of biological replicates): 0.06886; response, AVERAGE ([2]; concentration 0.016, average of biological replicates): 0.1014; response, AVERAGE ([2]; concentration 0.032, N 1): 0.1576; response, AVERAGE ([2]; concentration 0.075, average of biological replicates): 0.2051; response, AVERAGE ([2]; concentration 0.15, average of biological replicates): 0.2778; response, AVERAGE ([2]; concentration 0.3, average of biological replicates): 0.4027; response, AVERAGE ([2]; concentration 0.6, average of biological replicates): 0.307; response, AVERAGE ([2]; concentration 1.25, average of biological replicates): 0.417; response, AVERAGE ([2]; concentration 2.5, average of biological replicates): 0.471; response, AVERAGE ([2]; concentration 5, average of biological replicates): 0.4362; response, AVERAGE ([2]; concentration 10, average of biological replicates): 0.4759; response, AVERAGE ([2]; concentration 20, average of biological replicates): 0.4313; response, AVERAGE ([2]; concentration 40, average of biological replicates): 0.3644; MAX, fitted average curve ([2]; fit of the averaged dose-response curve): 0.4394; MAX (fitted parameter) ([2]; individual biological replicates, normalized response): 0.4829 and 0.2572 and 0.5237 and 0.5964 and 0.3582; DF norm AVERAGE OR10a [2, 8]: 0.4904; DF norm AVERAGE OR10a [2, 9]: 0.5549; DF norm AVERAGE OR10a [2, 10]: 0.9525
